According to patent publication US10780069B2, “Use of GC-1 in transplant related population” (University of Pittsburgh—Of the Commonwealth System of …, priority 2017, dated 2020):
“Also recorded” adds a separate entry of the source.

Columns and labels:
hepatocytes [1] = assay: Daily IP injections of GC-1 in wild type C57BL/6 mice: hepatocyte proliferation, β-catenin activation, cyclin-D1; type: in vivo; settings: vs DMSO control
Experimental: (§1) All studies on mice were performed in strict accordance with Guidelines. Eight-week old male C57BL/6 male mice (Jackson/Charles River) were maintained on a standard laboratory basal diet (Test Diet) (n=4), or fed a T3-supplemented diet (4 mg/Kg of diet, Sigma Chemicals, St. Louis Mo.) (n=4). GC-1 was administered to the eight week-old male C57BL/6 male mice either via GC-1-supplemented diet (5 mg/Kg of diet, Medchem Express) for 8 days (n=4) or via daily intraperitoneal injections (IP) of GC-1 dissolved in DMSO (0.3 mg/kg/dose) for 8 days (n=7). As a control group for injections, DMSO alone was injected daily intraperitoneal (IP) for 8 days (n=5). Mice were sacrificed 24 hours after the last injection.
(§2) To label dividing hepatocytes, BrdU (5-bromodeoxyuridine) dissolved in drinking water (1 mg/ml) was given to all animals throughout the experiment period. The animals were given food and water ad libitum with a 12-hour light/dark daily cycle.
(§3) Four micron liver sections were analyzed by immunohistochemistry for β-Catenin (BD Biosciences, San Jose, Calif.), Cyclin-D1 (Thermo-Scientific, Fremont, Calif.) and PCNA (Santa Cruz Biotechnology, Dallas, Tex.). Briefly, formalin-fixed sections were deparaffinized in graded xylene and alcohol. Endogenous peroxidase was inactivated using 3% hydrogen peroxide (Sigma). For β-Catenin, Cyclin-D1 staining, slides were microwaved in Citrate buffer followed by blocking with Superblock for 10 minutes. Sections were then incubated with secondary anti-mouse (for β-catenin) or anti-rabbit (for Cyclin-D1) horseradish peroxidase-conjugated antibody for 30 minutes.
For PCNA, slides were microwaved in zinc sulfate for 12 minutes, followed by blocking with Superblock for 20 minutes. Sections were incubated with PCNA antibody (Santa Cruz) diluted 1:4,000 in phosphate buffered saline (PBS) for 60 minutes. Slides then incubated with horse anti-mouse secondary antibody (1:700 dilution) for 30 minutes. ABC was applied for 30 minutes. DAB kit was then applied. Slides were then dehydrated, coverslips placed, and allowed to dry.
(§4) Bromodeoxyuridine (BrdU) was stained with mouse antibody (Becton Dickinson) as previously described (Fanti et al. (2014) Hepatology 59, 2309-2320). Briefly, tissue sections were deparaffinized, exposed to 0.3% hydrogen peroxide in deionized water for 10 minutes to block endogenous peroxidase, treated with 2N HCl, incubated with trypsin 0.1% for 20 minutes and then with normal goat serum for 20 minutes at room temperature. Sections were then incubated overnight in cold room with anti-BrdU monoclonal antibody, followed by biotinylated goat anti-mouse IgG. DAB kit was then applied, and sections were counterstained with hematoxylin. A small segment of intestine was included from each mouse as a positive control for the staining. For quantification of BrdU staining, at least 10 high power fields (400× or 600×) fields each from at least three biological replicates were counted as indicated in the figures. Statistical analysis was performed as described below.
Protein extraction from frozen liver tissue and western blot analysis were performed as previously described (Fanti et al., (2014) Hepatology 59, 2309-2320). For protein extraction, a small amount of frozen liver tissue was obtained (over dry ice) and was homogenized using RIPA buffer with protease and phosphatase inhibitor cocktail (Sigma, St. Louis, Mo.). Samples were transferred to a 1.5 ml tube on ice, and spun in cold room centrifuge at 14,000 RPM for 5 minutes. […]

[2] = system: preneoplastic hepatocytes; settings: resistant-hepatocyte model of hepatocarcinogenesis (T3, rats); Ledda-Columbano 2000, Perra 2009; cited from earlier work
hepatocytes [3] = assay: T3- or GC-1-supplemented diet in wild type mice: hepatocyte proliferation; type: in vivo
Experimental: as §1, §2, §3, §4

hepatocytes [4] = assay: Partial hepatectomy after pretreatment with T3 or GC-1 supplemented diet; type: in vivo, mice
Experimental: as §2
After 7 days of receiving T3 supplemented diet (n=3) or GC-1 diet (n=3) or standard basal mouse chow (n=3), C57BL/6 male mice underwent partial hepatectomy as described previously (Tan et al. (2006) Gastroenterology 131, 1561-1572). Anesthesia was provided with inhaled Isoflurane. The animals were sacrificed 24 hours post hepatectomy, after Isoflurane anesthesia and cervical dislocation. Serum and liver tissue were harvested for further processing.
as §3, §4

hepatocytes [5] = assay: T3 or GC-1 in LRP5-6 LKO mice and littermate controls; type: in vivo
Experimental: Eight to 10 week-old LRP5-6-LKO were obtained from breeding homozygous LRP5-6 double floxed mice with albumin-cre transgenic mice as described previously (Yang et al. (2014) Hepatology 60, 964-976). LRP5-6-LKO or sex matched littermate controls were given either T3-supplemented diet (n=4), basal diet (n=3), IP GC-1 (n=3) or IP DMSO (n=3). Mice were sacrificed at 24 hours after the last IP injection.
To label dividing hepatocytes, BrdU (5-bromodeoxyuridine) dissolved in drinking water (1 mg/ml) was given to all animals throughout the experiment period. The animals were given food and water ad libitum with a 12-hour light/dark daily cycle. […]
Protein extraction from frozen liver tissue and western blot analysis were performed as previously described (Fanti et al., (2014) Hepatology 59, 2309-2320). For protein extraction, a small amount of frozen liver tissue was obtained (over dry ice) and was homogenized using RIPA buffer with protease and phosphatase inhibitor cocktail (Sigma, St. Louis, Mo.). Samples were transferred to a 1.5 ml tube on ice, and spun in cold room centrifuge at 14,000 RPM for 5 minutes. Pellet was then discarded and sample was aliquoted and stored at −80 C for use. Fifty micrograms of the proteins were resolved by sodium dodecyl sulfate-polyacrylamide gel electrophoresis analysis, and transferred to immobilon-polyvinylidene difluoride membranes.
The primary antibodies used were against β-catenin (BD Biosciences); pSer675-β-catenin, pSer552-β-catenin, Active-β-catenin (Cell-Signaling), Cyclin-D1 (Thermo-Scientific), and β-Actin (Sigma). Dilutions of primary antibody were done according to manufacturer recommendations (1:1000 for all except Cyclin-D1 which was 1:200). Horseradish peroxidase-conjugated secondary antibodies used were goat anti-mouse (1:20,000) and goat anti-rabbit (1:10,000) (Millipore). The proteins were detected by Super-Signal West Pico Chemiluminescense Substrate (Thermo Scientific, Rockford Ill.) and visualized by autoradiography. […]

numbers of cyclin-D1-positive hepatocytes (immunohistochemistry) (hepatocytes [5]; LRP5-6 LKO vs controls): notably decreased
Structure (SMILES): Cc1cc(OCC(=O)O)cc(C)c1Cc1ccc(O)c(C(C)C)c1 [GC-1, Sobetirome]
PCNA-positive hepatocytes and BrdU incorporation (hepatocyte proliferation) (hepatocytes [1]; GC-1 0.3 mg/Kg/dose daily IP in DMSO, 8 days, 0.3 mg/kg): increased number of PCNA-positive hepatocytes as well as BrdU incorporation; also recorded: increased proliferation | P-Ser675-β-catenin level, Western blot of whole liver lysates (hepatocytes [1]; GC-1 0.3 mg/Kg/dose daily IP): increased | cyclin-D1 immunohistochemistry (hepatocytes [1]; GC-1 0.3 mg/Kg/dose daily IP): many positive hepatocytes | cyclin-D1 level, Western blot of whole liver lysates (hepatocytes [1]; GC-1 0.3 mg/Kg/dose daily IP): increased | total β-catenin level, Western blot (hepatocytes [1]; GC-1 0.3 mg/Kg/dose daily IP): did not show much difference | effect on preneoplastic lesions / carcinogenic process [2]: negatively influence the carcinogenic process | hepatocyte proliferation relative to T3 (hepatocytes [3]; GC-1 diet versus T3 diet, 8 days): modestly less extent than T3 | BrdU incorporation (hepatocytes [3]; T3 (4 mg/Kg of diet) or GC-1 (5 mg/Kg of diet) chow 8 days, vs basal diet): increased BrdU incorporation | cyclin-D1 staining in hepatocytes (hepatocytes [3]; T3 diet or IP GC-1, 8 days, vs respective controls): notably increased cyclin-D1 staining | cyclin-D1 staining in hepatocytes (hepatocytes [3]; T3 or GC-1 supplemented diet 8 days, vs basal diet): increased in both groups | BrdU-positive hepatocytes, T3 diet versus IP GC-1 (hepatocytes [3]; T3 supplemented diet versus IP GC-1, 8 days, p<0.001 between groups): overall fewer number of BrdU-positive hepatocytes | nuclear cyclin-D1 immunohistochemistry at 24 hours after hepatectomy (hepatocytes [4]; 24 hours after hepatectomy): panlobular distribution | BrdU positive hepatocyte nuclei at 24 hours after hepatectomy (hepatocytes [4]; diet pretreatment, vs basal diet): pronounced increase | increase in hepatocyte proliferation over the 24-hour liver regeneration period (hepatocytes [4]; pre-hepatectomy vs 24 hour-post hepatectomy, same animals, all three mice): around 2 fold | cyclin-D1 immunohistochemistry in resected lobes at time of hepatectomy (hepatocytes [4]; pretreatment livers): expansion of cyclin-D1 positive hepatocytes in the midzonal area | BrdU-positive hepatocytes in resected lobes at time of hepatectomy (hepatocytes [4]; seven-day pretreatment, vs basal diet): increased BrdU-positive hepatocytes | pSer675-β-catenin levels, Western blot (hepatocytes [5]; LRP5-6-LKO and littermate controls): comparable or even greater levels | pSer552-β-catenin levels, Western blot (hepatocytes [5]; LRP5-6 LKO): modest increase | active β-catenin levels (hepatocytes [5]; LRP5-6 LKO after T3 or GC-1 feeding vs basal diet): no notable differences | cyclin-D1 protein and mRNA expression (hepatocytes [5]; LRP5-6 LKO vs controls): decreased | total β-catenin levels (hepatocytes [5]; LRP5-6 LKO vs controls): comparable levels | number of BrdU-labeled hepatocyte nuclei (hepatocytes [5]; LRP5-6 LKO vs controls, T3 diet 4 mg/Kg of diet or GC-1 0.3 mg/Kg/dose IP 8 days): notable decrease | active β-catenin levels in liver lysates (hepatocytes [5]; control mice fed T3 or GC-1 diet for 8 days vs basal diet): dramatic increase
